What all share (type): cell-based
The test system of assay [1] is Anaerococcus hydrogenalis DSM 7454. The experiment in a line: TMA inhibition in bacterial whole cells (LC–MS/MS of d9-TMA from d9-choline). Particulars: 1 mM d9-choline in PBS, 75 min, 37°C, anaerobic; for EC50: Anaerococcus hydrogenalis, DSM7454, 1.25 h.
Assay [2] concerns Clostridium sporogenes ATCC 15579. The description is as above. Particulars: Clostridium sporogenes, ATCC15579, 1.25 h; 1 mM d9-choline in PBS, 75 min, 37°C, anaerobic.
The subject of assay [3] is Proteus mirabilis ATCC 29906. Described as above. Particulars: Proteus mirabilis, ATCC29906, 1.5 h; 1 mM d9-choline in PBS, 90 min, 37°C, anaerobic; read-out: EC50 in whole cells, P. mirabilis (TMA inhibition).
For assay [4], the system named is Collinsella aerofaciens ATCC 25986. The assay is described as follows: MIC in MEGA medium. Particulars: Collinsella aerofaciens, ATCC25986; anaerobic, 37°C, 24 h, up to 200 µM. As for the experimental part: (§1) For TMA inhibition assays, E. coli and P. mirabilis were grown in NCE medium supplemented with 20 mM choline chloride, A. hydrogenalis was grown in MEGA medium supplemented with 3 mM choline chloride, and C. sporogenes was grown in BHI medium supplemented with 20 mM of choline chloride to induce expression of the cut gene cluster. For MIC assays, all bacteria strains were grown in MEGA medium.

Assay [5] concerns Eubacterium rectale ATCC 33656. The experiment in a line: MIC in MEGA medium. Particulars: Agathobacter rectalis, ATCC33656; anaerobic, 37°C, 24 h, up to 200 µM; read-out: MIC in MEGA medium, E. rectale. As for the experimental part:
as §1

Assay [6] relates to Bacteroides ovatus ATCC 8483. The assay is described as follows: MIC in MEGA medium. Conditions: Bacteroides ovatus, ATCC8483; anaerobic, 37°C, 24 h, up to 200 µM; read-out: MIC in MEGA medium, B. ovatus. As to the method:
as §1

Assay [7] relates to Bacteroides caccae ATCC 43185. The experiment in a line: MIC in MEGA medium. Conditions: Bacteroides caccae, ATCC43185; anaerobic, 37°C, 24 h, up to 200 µM; read-out: MIC in MEGA medium, B. caccae. As to the method:
as §1

Assay [8] concerns Anaerococcus hydrogenalis DSM 7454. The experiment in a line: MIC in MEGA medium. Conditions: Anaerococcus hydrogenalis, DSM7454; anaerobic, 37°C, 24 h, up to 200 µM. As to the method:
as §1

The test system of assay [9] is Clostridium sporogenes ATCC 15579. The assay is described as follows: MIC in MEGA medium. Particulars: Clostridium sporogenes, ATCC15579; anaerobic, 37°C, 24 h, up to 200 µM. As for the experimental part: as §1
Assay [10] deals with Proteus mirabilis ATCC 29906. The experiment in a line: MIC in MEGA medium. Conditions: Proteus mirabilis, ATCC29906; anaerobic, 37°C, 24 h, up to 200 µM; read-out: MIC in MEGA medium, P. mirabilis. As for the experimental part:
as §1

The subject of assay [11] is Bacteroides thetaiotaomicron VPI-5482. The assay is described as follows: MIC in MEGA medium. Particulars: Bacteroides thetaiotaomicron, VPI5482; anaerobic, 37°C, 24 h, up to 200 µM; read-out: MIC in MEGA medium, B. thetaiotaomicron. As to the method: as §1

The structures appear in SMILES notation. Values after ≈ are worked out from the molar mass of the structure shown.

A word on the EC50: it is the midpoint of the concentration-response curve. As for `Cc1ccc(-c2cc(C(=O)NCCCN3CCc4ccccc4C3)c(C)[nH]2)cc1C` [Compound 5], the “EC50 in whole cells, A. hydrogenalis (TMA inhibition)” value in assay [1] is listed as “No inhibition”. In addition, the EC50 turned out to be 28 µM in assay [2] and 33 µM in assay [3].
A word on the MIC: it is the least concentration at which growth counts as inhibited. In the case of `Cc1ccc(-c2cc(C(=O)NCCCCCN3CCCCCC3)c(C)[nH]2)cc1C` [Compound 45], the EC50 in assay [1] was found to be 18 µM; in assay [2], 14 µM; in assay [3], 7 µM. Further, the MIC in [4], in assay [5], in assay [6], in assay [7], in assay [8] and in assay [9] was greater than 200 µM throughout. Further, the MIC in assay [10] and in assay [11] was greater than 200 µM each time.
Turning to `Cc1ccc(-c2cc(C(=O)NCCCN3CCC(C)CC3)c(C)[nH]2)cc1C` [Compound 6], the EC50 in [1] is 31 µM; in assay [2] it was 132 µM; in [3], 48 µM. Further, the MIC was greater than 200 µM in assay [4]; 200 µM (≈ 73.5 µg/mL) in assay [5]; greater than 200 µM in [6]; greater than 200 µM in assay [7]; 200 µM (≈ 73.5 µg/mL) in assay [8]; greater than 200 µM in assay [9]. In addition, the MIC in assay [10] and in assay [11] was greater than 200 µM in each case.

The values above are taken from paper PMC12977544, “Phenotypic high-throughput screening identifies modulators of gut microbial choline metabolism” (mBio, 2026).
